Data taken from article PMC7335359, “Design and Synthesis of Dihydroxamic Acids as HDAC6/8/10 Inhibitors” (Chemmedchem, 2020).
pIC50: −log10 of the molar value.

Tests used:
Assay type in all cases: cell-based
[1] = tested on: SK‐N‐BE(2)C neuroblastoma cell line; experiment: SK-N-BE(2)C cell viability assay (CellTiter-Blue); conditions: SK-N-BE(2)C cells; for effect on cell viability: up to 100 μM
Experimental: Cell viability assay: SK‐N‐BE(2)C cells were cultured in Dulbecco's modified Eagle medium (DMEM, Lonza, Basel, Switzerland) supplemented with 10 % fetal calf serum (FCS, Sigma‐Aldrich) and 1 % non‐essential amino acids (NEAA, Lonza). SK‐N‐BE(2)C cells were seeded from a confluent flask into 96‐well plates in 100 μL full growth medium at a density of 5×10^3 cells per well the day before treatment. Cells were treated in triplicates with drug concentrations as indicated in the respective figure. Drugs were dosed from 50 mM and 200 mM stock solutions with a D300e Digital Dispenser (Tecan) and DMSO concentrations were normalized to 0.2 % for all wells. Plates were shaken (1000 rpm orbital shaker, 30 s) and incubated under standard culture conditions for 72 h. To each well 20 μL of CellTiter‐Blue® reagent (G8081, Promega) was added, plates were shaken (600 rpm orbital shaker, 20 s) and incubated at 37 °C overnight. Fluorescence was measured (extinction/emission: 570 nm/590 nm) on a FluoStar Optima (BMG Labtech) plate reader. Cell viability was normalized with untreated positive controls and cell‐free negative controls. IC50‐values were calculated as described in the BRET assay.

[2] = tested on: acetylation of the HDAC8 substrate SMC3; experiment: Western blot of SMC3 acetylation in SK-N-BE(2)C cells; conditions: relative to solvent control
Experimental: Western blot analysis of SMC3, tubulin and histone H3 acetylation: For the analysis of protein acetylation, 1.5–2×10^6 SK‐N‐BE(2)‐C cells were seeded per 10 cm dish and allowed to adhere overnight. Cells were treated for 18 h (Figure 4B) or 6 h (Figure 4E) with inhibitors at concentrations indicated in the respective figure. […] Cell debris was removed by centrifugation (15 000 g for 10 min at 12 °C).

[3] = tested on: lysosomal staining with LysoTracker DND‐99 (HDAC10 knockdown phenotype); experiment: LysoTracker assay in SK-N-BE(2)C cells; conditions: 10 μM inhibitor, normalized to DMSO
Experimental: LysoTracker assay: SK‐N‐BE(2)‐C cells were seeded into 6‐well dishes at a density of 1.5×10^5 cells per well. Cells were treated with inhibitor over night at concentrations indicated in the figure and stained the following day for 1 h with 50 nM LysoTracker® Red DND‐99 in medium under standard cell culture conditions. Cells were washed with ice‐cold RPMI without phenol‐red and trypsinized for 3 min at 37 °C. Detached cells were centrifuged for 3 min at 8600 g and re‐suspended in ice‐cold RPMI without phenol red. Mean LysoTracker fluorescence was quantified on a BD FACSCanto II platform using the PE filter setting. Data were normalized to mean LysoTracker fluorescence of solvent (DMSO) treated cells.

HDAC10 = molecular target: T1, HDAC10 (Homo sapiens, UniProt Q969S8); experiment: cellular BRET HDAC10 target engagement assay (stably transfected HeLa cells); design: host or cells: HeLa (stably transfected mono-clones); conditions: for IC50: read-out: HDAC10 BRET pIC50 (converted)
T1 sequence (Q969S8 1-669): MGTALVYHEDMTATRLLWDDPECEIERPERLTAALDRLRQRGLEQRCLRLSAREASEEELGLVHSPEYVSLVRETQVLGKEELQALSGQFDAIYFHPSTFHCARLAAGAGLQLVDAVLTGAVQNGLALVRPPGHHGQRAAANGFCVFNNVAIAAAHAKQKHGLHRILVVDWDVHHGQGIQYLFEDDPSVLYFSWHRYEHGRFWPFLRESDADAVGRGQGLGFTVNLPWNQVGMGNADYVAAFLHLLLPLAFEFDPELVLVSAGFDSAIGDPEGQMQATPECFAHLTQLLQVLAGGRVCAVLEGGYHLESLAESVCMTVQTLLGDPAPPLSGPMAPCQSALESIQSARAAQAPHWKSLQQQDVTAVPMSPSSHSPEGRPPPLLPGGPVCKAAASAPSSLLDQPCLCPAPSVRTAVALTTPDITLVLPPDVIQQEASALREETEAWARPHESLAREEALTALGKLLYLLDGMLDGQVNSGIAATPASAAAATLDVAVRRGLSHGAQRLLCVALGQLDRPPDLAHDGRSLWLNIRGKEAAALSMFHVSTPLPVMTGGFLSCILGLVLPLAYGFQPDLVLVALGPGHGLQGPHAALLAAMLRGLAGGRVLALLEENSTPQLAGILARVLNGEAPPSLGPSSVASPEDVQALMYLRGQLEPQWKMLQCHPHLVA
Experimental: Production of mono‐clones stably expressing HDAC‐nanoBRET proteins: Plasmids expressing a fusion of HDAC10 with nanoluciferase were obtained from Promega (N2170). HeLa cells (0.75×10^6) were seeded in a 6 cm dish and after 24 h were transfected with a mix of 10 μg plasmid and 3 μL Fugene in 200 μL OptiMEM. In detail, cells were washed with pre‐warmed OptiMEM and subsequently overlaid with 2.3 mL of OptiMEM. After addition of 200 μL transfection mix, cells were incubated for 24 h at 37 °C. Cells were than trypsinized and 0.2×10^5 cells were seeded into both 10 cm and 15 cm dishes. Transformants were selected with 1 mg/mL G‐418 for 6 days with a media change after 3 days. Clones which formed colonies were picked by rinsing plates with 3 mL Trypsin/EDTA (Sigma T3924) followed by a 2 min incubation with 300 μL Trypsin/EDTA at 37 °C. Colonies were then loosened and aspirated with a 10 μL filter tip and transferred to 24‐well plates containing selection medium.
Culture of stable BRET cell lines: Stably transfected HeLa cells were cultivated under sterile conditions in polystyrene cell culture flasks (658170, Greiner) at 37 °C and 5 % CO2 in a humidified atmosphere. DMEM growth medium (D6049, Sigma) was supplemented with 10 % FCS (FBS‐12A, Capricorn Scientific), 1 % penicillin‐streptomycin (P4333, Sigma) and 1 mg/mL Geneticin (2039.3, Roth). At confluency, cells were passaged by removing old medium, DPBS (14190‐094, gibco) wash, trypsination (T4049, Sigma) and seeding in fresh growth medium.
BRET assay: The intracellular target engagement assay on HDAC10 was performed as described by the kit manufacturer in a 96‐well plate (3600, Corning) format with 1.9×10^4 cells per well and a tracer concentration of 0.3 μM. […] Drug dosing was performed from 10 mM and 1 mM DMSO stock solutions with a D300e Digital Dispenser (Tecan), DMSO concentrations were normalized to 0.5 % for all wells. Assay plates were incubated at 37 °C for 2 h followed by measurement of 450 nm and 650 nm luminescence (80 nm bandwidth) at room temperature with a CLARIOstar (BMG Labtech) plate reader 2 min after NanoLuc substrate addition.

[4] = cellular target engagement, one experiment in triplicate

SMILES	pIC50 ([1]; 72 h)	acetylation of SMC3 (HDAC8 substrate), Western blot [2]	lysosomal staining with LysoTracker DND-99 (HDAC10 knockdown phenotype) [3]	loss of potency between the FRET and BRET HDAC10 assays (HDAC10; BRET weaker than FRET) [fold]	IC50 (HDAC10; [4]) [nM]	effect on cell viability [1]	HDAC10 BRET pIC50 (HDAC10; [4])
O=C(NO)c1ccc(Cc2c[nH]c3ccc(C(=O)NO)cc23)cc1 [Compound 3d]	5.15	increases acetylation	induces lysosomal acidification similar to Tubastatin A	~5	15.1		
CN(C)Cc1nn(Cc2ccc(C(=O)NO)cc2)c2cc(C(=O)NO)ccc12 [Compound 3g]		no effect	failed to produce an HDAC10 knockdown phenotype		158	little effect	
CN(C)Cc1nn(Cc2ccc(C(=O)NO)cc2)c2ccccc12 [Compound 1g]			effective				7.80
CN(C)CCn1cc(Cc2ccc(C(=O)NO)cc2)c2cc(C(=O)NO)ccc21 [Compound 3e]			failed to produce an HDAC10 knockdown phenotype			little effect	
